Data taken from article PMC6033295, “The Effects of the Honey-Roasting Process on the Pharmacokinetics of the Six Active Compounds of Licorice” (Evidence-based Complementary and Alternative Medicine : eCAM, 2018).
Like-named read-outs stand apart in the source and are kept apart here.

Key:
[1] = Pharmacokinetic study in rats after oral administration of raw/honey-roasting licorice water decoction (UPLC-MS/MS of plasma); format: in vivo, Wistar rats; settings: for AUC(0-t) / Cmax / Tmax / AUC0-24h: 2.7 g (crude drug)/kg, rat plasma, n = 5; for AUC(0-t): read-out: AUC0-24h
Description: Healthy male Wistar rats (weighing 200 ± 20 g) were obtained from the Laboratory Animal Centre of Shanghai Jiao Tong University (Shanghai, China). […] All protocols and procedures were approved by the Shanghai Jiao Tong University Animal Care and Use Committee.
Chromatographic separation was performed on a ZORBAX Eclipse Plus C18 column (50 mm × 2.1 mm, 1.8 µm). […] The flow rate was set at 0.4 mL/min. The column temperature and injection volume were set at 40°C and 2.0 µL, respectively. An MS system operating in negative electrospray ionization mode was employed in this study. […] The DP for each compound and IS were -120, -100, -100, -100, -100, -80, and -100 V, respectively. The collision energy for each compound and IS were -58, -32, -42, -32, -32, -65, and -20 V, respectively. The ion spray needle voltage was set at -4500 V, and the source temperature was 500°C. Following optimization of the setting parameters, the ESI source was operated with the GS1, GS2, and CUR (Nitrogen) set at 35, 35, and 40 psi, respectively.
Fifty microliters of the plasma samples (or standard plasma samples and QC samples) were spiked with 5 µL of IS solution (10.00 µg/mL) and 200 µL of acetonitrile. The mixture was vortexed for 30 s and centrifuged at 14,000 rpm for 15 min at 4°C. The supernatant was collected and evaporated in a 37°C water bath under a nitrogen stream. The residue was redissolved with 500 µL of 70% acetonitrile.
After being housed in a controlled environment for a week, rats were randomly divided into three groups (n = 5 for each group) and were then orally administered a raw, 25% honey-roasting, or 50% honey-roasting licorice water decoction at a dosage of 2.7 g (crude drug)/kg. Blood samples of 0.15 mL were taken from the suborbital vein into heparinized tubes at 0.17, 0.5, 1, 1.5, 2, 2.5, 3, 4, 6, 8, 12, and 24 h after oral administration of the licorice water decoction. The blood samples were immediately centrifuged at 10,000 rpm for 15 min. The separated plasma samples were frozen at -80°C before analysis.
The pharmacokinetic parameters of the six compounds were calculated by […] 4.4.1 (Thermo Electron Corporation, Philadelphia, PA, USA) software. […] Data were presented as the mean ± SD. Statistical analyses of all the data obtained were evaluated using one-way ANOVA (SPSS 17.0).

[2] = Stability of six compounds in rat plasma (QC samples); format: in vitro ADME; settings: n = 6
Description: The stabilities of the six compounds in rat plasma were evaluated by analyzing QC samples under different conditions. […] Long-term stability was tested by storing QC samples at -80°C for one month. RSD was evaluated by analyzing six replicate samples. The stability of the six compounds was evaluated under various conditions.

[3] = parameters: method as in PMID 8197226, PMID 1432618; settings: cited from earlier work
[4] = male, Wistar, rat, plasma, po, oral 25% honey-roasting licorice water decoction
[5] = male, Wistar, rat, plasma, po, oral 25% honey-roasting licorice water decoction, read-out: Cmax
[6] = male, Wistar, rat, plasma, po, oral 25% honey-roasting licorice water decoction, read-out: Tmax
[7] = male, Wistar, rat, plasma, po, oral 50% honey-roasting licorice water decoction
[8] = male, Wistar, rat, plasma, po, oral 50% honey-roasting licorice water decoction, read-out: Cmax
[9] = male, Wistar, rat, plasma, po, oral 50% honey-roasting licorice water decoction, read-out: Tmax
[10] = male, Wistar, rat, plasma, po, oral raw licorice water decoction
[11] = male, Wistar, rat, plasma, po, oral raw licorice water decoction, read-out: Cmax
[12] = oral raw licorice water decoction
[13] = At 4°C for 24 h, postpreparative QC sample in autosampler, high concentration level
[14] = At 4°C for 24 h, postpreparative QC sample in autosampler, low concentration level
[15] = At 4°C for 24 h, postpreparative QC sample in autosampler, medium concentration level
[16] = At -80°C for 1 month, rat plasma QC sample, low concentration level
[17] = At -80°C for 1 month, rat plasma QC sample, medium concentration level
[18] = 25% honey-roasting group vs raw group, rat, oral
[19] = At -80°C for 1 month, rat plasma QC sample, high concentration level
[20] = male, Wistar, rat, in vivo, po, oral 50% honey-roasting licorice water decoction
[21] = oral 25% honey-roasting licorice water decoction
[22] = oral 50% honey-roasting licorice water decoction

Structure (SMILES) | AUC(0-t) [1, 4] | Cmax [1, 5] | Tmax [1, 6] | AUC(0-t) [1, 7] | Cmax [1, 8] | Tmax [1, 9] | AUC(0-t) [1, 10] | Cmax [1, 11] | Tmax [1, 12] | Stability, Average [2, 13] | Stability, Average [2, 14] | Stability, Average [2, 15] | Stability, Average [2, 16] | Stability, Average [2, 17] | Stability, Average [2, 19] | AUC(0-t) [1, 20] | further results
CC1(C)[C@@H](O)CC[C@]2(C)[C@H]3C(=O)C=C4[C@@H]5C[C@@](C)(C(=O)O)CC[C@]5(C)CC[C@@]4(C)[C@]3(C)CC[C@@H]12 [GA, glycyrrhetinic acid] | 7000 ± 1290 ng·h/mL | 651 ± 200 ng/mL | 6.8 h | 5180 ± 2540 ng·h/mL | 608 ± 278 ng/mL | 6.8 h | 6980 ± 4800 ng·h/mL | 572 ± 311 ng/mL | 8.0 h | 100.9% | 96.4% | 96.2% | 96.2% | 102.1% |  |  | 
CC1(C)[C@@H](O[C@H]2O[C@H](C(=O)O)[C@@H](O)[C@H](O)[C@H]2O[C@@H]2O[C@H](C(=O)O)[C@@H](O)[C@H](O)[C@H]2O)CC[C@]2(C)[C@H]3C(=O)C=C4[C@@H]5C[C@@](C)(C(=O)O)CC[C@]5(C)CC[C@@]4(C)[C@]3(C)CC[C@@H]12 [Glycyrrhizin, glycyrrhizin] |  |  |  |  |  |  |  |  |  |  |  |  |  |  |  |  | oral bioavailability [3]: extremely low
O=C(/C=C/c1ccc(O)cc1)c1ccc(O)cc1O [ILG, isoliquiritigenin] | 9.32 ± 0.68 ng·h/mL | 1.12 ± 0.25 ng/mL | 1.5 h | 6.13 ± 0.8 ng·h/mL | 0.56 ± 0.12 ng/mL | 1.8 h | 6.53 ± 2.34 ng·h/mL | 0.75 ± 0.28 ng/mL |  | 93.1% | 95.7% | 96.4% | 94.7% | 85.3% | 87.6% |  | Cmax higher than in the raw group [1, 18]: 49.3%; AUC0-24h increased over the raw licorice group ([1]; honey-roasting licorice vs raw licorice group, rat, oral): 42.7%; Tmax ([1]; male, Wistar, rat, plasma, po, oral raw licorice water decoction, read-out: Tmax): 1.5 h
O=C(/C=C/c1ccc(O[C@@H]2O[C@H](CO)[C@@H](O)[C@H](O)[C@H]2O)cc1)c1ccc(O)cc1O [ILQ, isoliquiritin] |  |  |  |  |  |  |  |  |  | 95.7% | 90.2% | 89.3% | 89.4% | 94.2% | 100.1% | 246 ± 7.67 ng·h/mL | Cmax lower than in the raw group [1, 18]: 48.07%; Tmax longer than in the raw group [1, 18]: 1.75 times; Tmax ([1]; male, Wistar, in vivo, oral 25% honey-roasting licorice water decoction, read-out: Tmax): 0.7 h; AUC(0-t) ([1]; male, Wistar, rat, in vivo, po, oral 25% honey-roasting licorice water decoction): 260 ± 8.53 ng·h/mL; Cmax ([1]; male, Wistar, rat, in vivo, po, oral 25% honey-roasting licorice water decoction, read-out: Cmax): 24.8 ± 3.63 ng/mL; Cmax ([1]; male, Wistar, rat, in vivo, po, oral 50% honey-roasting licorice water decoction, read-out: Cmax): 20.6 ± 5.82 ng/mL; AUC(0-t) ([1]; male, Wistar, rat, in vivo, po, oral raw licorice water decoction): 257 ± 19.3 ng·h/mL; Cmax ([1]; male, Wistar, rat, in vivo, po, oral raw licorice water decoction, read-out: Cmax): 47.8 ± 2.62 ng/mL
O=C1C[C@@H](c2ccc(O)cc2)Oc2cc(O)ccc21 [LG, liquiritigenin] |  |  |  |  |  |  |  |  | 2.4 h | 93.9% | 90.8% | 87.7% | 92.8% |  | 96.5% |  | AUC0-24h [1, 21]: 85.36 ± 14.70 ng·h/mL; Tmax [1, 21]: 2.3 h; AUC0-24h [1, 22]: 47.74 ± 8.03^∗Δ h·ng /mL; Tmax [1, 22]: 2.5 h; AUC0-24h [1, 12]: 84.29 ± 33.71 ng·h/mL
O=C1C[C@@H](c2ccc(O[C@@H]3O[C@H](CO)[C@@H](O)[C@H](O)[C@H]3O)cc2)Oc2cc(O)ccc21 [LQ, liquiritin] | 479 ± 65.2 ng·h/mL | 203 ± 54.1 ng/mL |  |  | 87.9 ± 8.08 ng/mL |  | 520 ± 94.5 ng·h/mL |  |  | 99.5% | 90.9% | 88.3% | 96.4% | 95.6% | 89.5% | 319 ± 50 ng·h/mL | Cmax lower than in the raw licorice group ([1]; 50% honey-roasting group vs raw licorice group, rat, oral): 53.96%; Cmax [1, 12]: 191.00 ± 80.23 ng/mL
